Results taken from patent publication US10227347B2, “Purinyl-N-hydroxyl pyrimidine formamide derivative, preparation methods and uses thereof” (Guizhou Bailing Group Pharmaceutical CO., LTD., priority 2015, dated 2019).
Like-named read-outs stand apart in the source and are kept apart here.

Tests used:
PI3Kδ = molecular target: T1, PI3Kδ (Homo sapiens, UniProt O00329); assay: PI3Kδ activity inhibition (Kinase-Glo); type: biochemical
T1 construct: purchased Millipore 14-604-K
In short: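 Kinase-Glo luminescence read-out of remaining ATP after PI3K reaction with PIP2 and ATP substrates in 50 mM HEPES pH 7.5, 3 mM MgCl2, 1 mM EGTA, 100 mM NaCl, 0.03% CHAPS, 2 mM DTT. Incubated at ambient temperature, 1 h for PI3Kα, 2 h for PI3Kδ. IC50 from four-parameter fit of % inhibition versus concentration.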

PI3Kβ = molecular target: T2, PI3Kβ (Homo sapiens, UniProt P42338); assay: PI3Kβ activity inhibition (ADP-Glo); type: biochemical
T2 construct: purchased Millipore 14-603-K
T2 sequence (P42338 whole entry, species assumed): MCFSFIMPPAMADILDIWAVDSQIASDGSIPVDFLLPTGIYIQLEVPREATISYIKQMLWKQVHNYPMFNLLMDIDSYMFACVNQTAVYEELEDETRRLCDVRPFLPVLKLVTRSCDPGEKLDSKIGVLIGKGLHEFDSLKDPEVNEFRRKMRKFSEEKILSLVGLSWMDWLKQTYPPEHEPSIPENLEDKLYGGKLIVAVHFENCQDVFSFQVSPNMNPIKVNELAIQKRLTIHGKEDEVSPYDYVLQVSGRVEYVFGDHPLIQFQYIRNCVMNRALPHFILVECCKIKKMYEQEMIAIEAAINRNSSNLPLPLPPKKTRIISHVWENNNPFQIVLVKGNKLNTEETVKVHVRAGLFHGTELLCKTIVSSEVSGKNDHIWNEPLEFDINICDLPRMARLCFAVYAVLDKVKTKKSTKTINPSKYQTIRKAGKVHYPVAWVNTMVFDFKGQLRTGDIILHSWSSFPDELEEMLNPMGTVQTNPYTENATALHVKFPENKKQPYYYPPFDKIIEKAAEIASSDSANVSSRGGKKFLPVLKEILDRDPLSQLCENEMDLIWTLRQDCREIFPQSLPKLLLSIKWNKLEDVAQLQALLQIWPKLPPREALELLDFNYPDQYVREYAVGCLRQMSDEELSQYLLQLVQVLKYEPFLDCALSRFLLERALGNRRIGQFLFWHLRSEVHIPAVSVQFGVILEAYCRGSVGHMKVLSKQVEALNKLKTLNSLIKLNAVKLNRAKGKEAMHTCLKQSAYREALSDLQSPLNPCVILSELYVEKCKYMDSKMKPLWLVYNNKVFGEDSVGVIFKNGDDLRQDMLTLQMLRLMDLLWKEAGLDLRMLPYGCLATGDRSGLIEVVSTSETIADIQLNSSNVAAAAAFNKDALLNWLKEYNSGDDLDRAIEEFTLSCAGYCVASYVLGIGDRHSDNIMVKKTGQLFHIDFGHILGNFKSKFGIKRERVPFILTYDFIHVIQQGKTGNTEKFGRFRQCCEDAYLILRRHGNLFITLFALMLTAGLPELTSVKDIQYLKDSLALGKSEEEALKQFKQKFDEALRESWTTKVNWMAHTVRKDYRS
T2 sequence (P27986 whole entry partner, species assumed): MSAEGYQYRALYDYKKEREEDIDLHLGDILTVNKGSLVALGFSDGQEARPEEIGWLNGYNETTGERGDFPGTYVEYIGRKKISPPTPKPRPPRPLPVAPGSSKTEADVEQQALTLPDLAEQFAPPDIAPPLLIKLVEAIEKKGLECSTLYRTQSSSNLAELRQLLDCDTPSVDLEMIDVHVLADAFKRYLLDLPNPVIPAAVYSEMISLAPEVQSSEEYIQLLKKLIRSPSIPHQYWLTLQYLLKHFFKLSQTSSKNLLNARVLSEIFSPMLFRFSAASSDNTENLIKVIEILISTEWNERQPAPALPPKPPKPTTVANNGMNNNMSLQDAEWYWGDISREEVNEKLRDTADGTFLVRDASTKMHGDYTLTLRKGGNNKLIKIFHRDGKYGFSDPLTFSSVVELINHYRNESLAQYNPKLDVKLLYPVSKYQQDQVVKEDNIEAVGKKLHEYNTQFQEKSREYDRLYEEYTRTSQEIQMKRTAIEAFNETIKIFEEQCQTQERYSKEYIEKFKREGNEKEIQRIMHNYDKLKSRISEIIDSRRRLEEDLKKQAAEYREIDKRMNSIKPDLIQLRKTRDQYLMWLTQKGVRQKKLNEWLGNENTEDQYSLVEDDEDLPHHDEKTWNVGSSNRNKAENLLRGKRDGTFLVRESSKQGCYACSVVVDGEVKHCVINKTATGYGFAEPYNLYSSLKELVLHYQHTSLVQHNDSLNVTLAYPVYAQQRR
In short: (§1)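 Kinase activity measured by ADP-Glo luminescence with PIP2 and ATP substrates in 50 mM HEPES pH 7.5, 3 mM MgCl2, 1 mM EGTA, 100 mM NaCl, 0.03% CHAPS, 2 mM DTT. Reaction ran 1 h at ambient temperature. IC50 was fitted from inhibition ratio versus compound concentration.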

[1] = tested on: hct116 cells (colon cancer); assay: Cell proliferation inhibition, hct116 (MTT); type: cell-based; conditions: Homo sapiens, HCT-116
In short: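 Cells seeded at 2000-3000/well; adherent lines dosed after attachment, then 96 h incubation with compound. Viability read by MTT for solid-tumour lines (HCT116, A2780s) and CCK-8 for MV4-11; IC50 from four-parameter logistic fit of inhibition ratio versus concentration.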

[2] = tested on: MM1S cells (multiple myeloma); assay: Proliferation inhibition, MM1S (cck-8); type: cell-based; conditions: Homo sapiens, MM1.S; 96 h incubation
Description: Calculating the value of IC50 as per the formula: Y=background data+(top data−background data)/(1+10^((Log IC50−X)*rate of curve)). Where, Y refers to the inhibition ratio (%) and X refers to the compound concentration.

HDAC1 = molecular target: T3, HDAC1 (Homo sapiens, UniProt Q13547); assay: In vitro HDAC1 enzymatic activity inhibition (Lys-Ac-AMC substrate); type: biochemical
T3 construct: purchased BPS Bioscience
T3 sequence (Q13547 whole entry, species assumed): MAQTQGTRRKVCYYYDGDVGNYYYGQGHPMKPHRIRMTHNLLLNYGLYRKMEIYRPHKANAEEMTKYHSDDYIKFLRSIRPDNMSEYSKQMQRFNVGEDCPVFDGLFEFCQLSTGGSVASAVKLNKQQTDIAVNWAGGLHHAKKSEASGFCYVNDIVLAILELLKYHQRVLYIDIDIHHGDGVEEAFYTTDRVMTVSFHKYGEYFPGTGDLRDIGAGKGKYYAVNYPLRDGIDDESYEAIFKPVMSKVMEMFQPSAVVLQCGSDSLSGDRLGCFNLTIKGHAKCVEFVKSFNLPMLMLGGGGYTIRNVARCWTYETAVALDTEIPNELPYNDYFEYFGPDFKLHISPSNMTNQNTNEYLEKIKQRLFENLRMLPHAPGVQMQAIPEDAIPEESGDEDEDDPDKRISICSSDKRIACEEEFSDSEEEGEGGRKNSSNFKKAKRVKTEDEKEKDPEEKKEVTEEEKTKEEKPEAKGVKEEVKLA
In short: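 Fluorogenic Lys-Ac-AMC deacetylation with trypsin development in modified Tris buffer pH 7.0; compound preincubated with enzyme 15 min at ambient temperature before substrate addition. Final HDAC1 6 nM, trypsin 0.05 μM, Ac-peptide 8 μM. IC50 from four-parameter fit of % inhibition versus concentration.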

PI3Kγ = molecular target: T4, PI3Kγ (Homo sapiens, UniProt P48736); assay: PI3Kγ activity inhibition (ADP-Glo); type: biochemical
T4 construct: purchased Invitrogen PR8641C
T4 sequence (P48736 whole entry): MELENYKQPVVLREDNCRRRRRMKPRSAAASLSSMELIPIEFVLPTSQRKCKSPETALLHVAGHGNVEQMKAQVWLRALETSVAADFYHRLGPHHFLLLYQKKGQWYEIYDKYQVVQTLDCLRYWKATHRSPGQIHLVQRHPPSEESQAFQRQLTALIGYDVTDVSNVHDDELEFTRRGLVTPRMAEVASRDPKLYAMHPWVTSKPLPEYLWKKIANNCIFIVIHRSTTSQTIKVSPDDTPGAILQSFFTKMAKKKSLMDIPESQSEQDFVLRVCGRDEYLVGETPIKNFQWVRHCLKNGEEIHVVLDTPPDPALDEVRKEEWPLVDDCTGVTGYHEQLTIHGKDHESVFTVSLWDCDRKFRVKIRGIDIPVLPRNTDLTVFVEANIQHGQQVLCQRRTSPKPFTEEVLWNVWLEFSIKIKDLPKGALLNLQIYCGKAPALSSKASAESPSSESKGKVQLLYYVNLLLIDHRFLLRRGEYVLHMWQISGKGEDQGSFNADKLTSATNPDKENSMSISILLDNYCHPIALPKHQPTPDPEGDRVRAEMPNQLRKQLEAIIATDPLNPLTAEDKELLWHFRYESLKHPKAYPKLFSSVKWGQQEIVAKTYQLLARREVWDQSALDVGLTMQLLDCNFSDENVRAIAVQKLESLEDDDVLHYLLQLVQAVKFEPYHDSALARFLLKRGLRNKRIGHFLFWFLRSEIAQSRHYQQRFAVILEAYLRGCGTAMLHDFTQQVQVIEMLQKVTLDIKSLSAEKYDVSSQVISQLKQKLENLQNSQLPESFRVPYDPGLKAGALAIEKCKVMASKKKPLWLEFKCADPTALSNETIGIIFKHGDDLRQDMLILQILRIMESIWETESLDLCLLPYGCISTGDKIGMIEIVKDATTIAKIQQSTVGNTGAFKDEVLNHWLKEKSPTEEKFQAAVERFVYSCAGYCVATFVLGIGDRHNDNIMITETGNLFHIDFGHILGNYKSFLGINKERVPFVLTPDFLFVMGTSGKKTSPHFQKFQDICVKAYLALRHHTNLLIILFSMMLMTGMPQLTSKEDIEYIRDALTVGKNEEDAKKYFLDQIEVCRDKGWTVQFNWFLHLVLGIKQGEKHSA
In short: as §1

[3] = 96 h incubation, read-out: Proliferation IC50, Colon cancer hct116
[4] = Table 1, graded, read-out: HDAC1 IC50
[5] = Table 4, graded, read-out: HDAC1 IC50
[6] = read-out: inhibition value IC50 to the activity of HDAC1

T1 sequence (O00329 whole entry): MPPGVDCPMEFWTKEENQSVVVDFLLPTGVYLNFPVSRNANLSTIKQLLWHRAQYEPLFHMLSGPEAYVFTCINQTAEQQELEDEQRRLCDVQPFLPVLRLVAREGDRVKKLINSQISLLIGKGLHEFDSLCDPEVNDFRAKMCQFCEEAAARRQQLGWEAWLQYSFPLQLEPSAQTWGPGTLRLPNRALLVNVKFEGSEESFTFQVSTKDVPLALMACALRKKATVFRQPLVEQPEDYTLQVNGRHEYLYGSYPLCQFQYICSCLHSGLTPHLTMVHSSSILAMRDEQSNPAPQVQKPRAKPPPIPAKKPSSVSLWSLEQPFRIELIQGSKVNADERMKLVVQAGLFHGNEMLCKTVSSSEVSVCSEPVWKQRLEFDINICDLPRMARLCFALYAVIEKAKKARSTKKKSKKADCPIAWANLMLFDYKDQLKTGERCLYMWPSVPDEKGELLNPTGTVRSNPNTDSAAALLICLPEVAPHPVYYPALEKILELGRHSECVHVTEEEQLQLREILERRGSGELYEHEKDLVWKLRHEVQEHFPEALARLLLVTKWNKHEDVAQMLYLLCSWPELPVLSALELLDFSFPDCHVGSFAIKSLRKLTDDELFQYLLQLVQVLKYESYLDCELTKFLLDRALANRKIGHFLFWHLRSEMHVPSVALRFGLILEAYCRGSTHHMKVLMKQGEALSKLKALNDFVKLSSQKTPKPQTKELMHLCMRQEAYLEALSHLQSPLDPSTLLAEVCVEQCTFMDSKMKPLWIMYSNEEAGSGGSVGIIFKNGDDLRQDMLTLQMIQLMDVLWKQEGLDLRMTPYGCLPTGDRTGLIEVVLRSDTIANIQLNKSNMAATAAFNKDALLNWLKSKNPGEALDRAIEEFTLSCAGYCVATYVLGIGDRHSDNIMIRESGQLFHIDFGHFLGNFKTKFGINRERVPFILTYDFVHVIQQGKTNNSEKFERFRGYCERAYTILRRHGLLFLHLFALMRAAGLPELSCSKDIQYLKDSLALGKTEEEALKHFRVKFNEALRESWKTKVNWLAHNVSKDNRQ
T1 sequence (P27986 whole entry partner): as the sequence (P27986 whole entry partner, species assumed) above

Row | SMILES | IC50 (PI3Kδ; Table 1, graded) [nM] | IC50 (PI3Kδ; Table 4, graded) [nM] | IC50 (PI3Kβ; Table 1, graded) [nM] | IC50 (PI3Kβ; Table 4, graded) [nM] | IC50 [1, 3] [nM] | IC50 [2] [nM] | IC50 (HDAC1; [4]) [nM] | IC50 (HDAC1; [5]) [nM] | IC50 (PI3Kγ; Table 1, graded) [nM] | IC50 (PI3Kγ; Table 4, graded) [nM] | IC50 ([1]; read-out: IC50 to proliferation of hct116 cells) [nM] | IC50 (HDAC1; [6]) [nM]
1 | COc1ccc(-c2nc(N3CCOCC3)c3nc(CN(C)c4ncc(C(=O)NO)cn4)n(C)c3n2)cn1 [CLJ-1, 2-(((2-(6-methoxypyridine-3-yl)-9-methyl-6-morpholine-9H-purine-8-yl))methyl(methyl)amino)-N-hydroxyl pyrimidine-5-formamide] | 100 to 1000 | 100 to 1000 | 1000 to 10000 | 1000 to 10000 | 10 to 100 | 0.1 to 1 | < 100 | 1 to 100 | 100 to 1000 | 100 to 1000 |  | 
2 | CN(Cc1nc2c(N3CCOCC3)nc(-c3cnc(N)nc3)nc2n1C)c1ncc(C(=O)NO)cn1 [CLJ-11, 2-(((2-(2-aminopyrimidine-5-yl)-9-methyl-6-morpholine-9H-purine-8-yl))methyl(methyl)amino)-N-hydroxyl pyrimidine-5-formamide] | 100 to 1000 | 1 to 100 | 100 to 1000 | 1 to 100 | 10 to 100 | 1 to 10 | < 100 | 1 to 100 | 100 to 1000 | 1 to 100 |  | 
3 | COc1ccc(-c2nc(N3CCOCC3)c3nc(CN(C)c4ncc(C(=O)NO)cn4)n(C)c3n2)cc1 [CLJ-29, 2-(((2-(4-methoxyphenyl)-9-methyl-6-morpholine-9H-purine-8-yl))methyl(methyl)amino)-N-hydroxyl pyrimidine-5-formamide] |  | > 10000 |  | > 10000 | 0.1 to 10 | 0.1 to 1 | < 1 | < 1 |  | > 10000 | 0.1 to 10 | < 1
4 | CN(Cc1nc2c(N3CCOCC3)nc(-c3ccc(N)cc3)nc2n1C)c1ncc(C(=O)NO)cn1 [CLJ-44] |  | > 10000 |  | > 10000 | 10 to 100 | 1 to 10 | < 1 | < 1 |  | > 10000 |  | < 1
5 | Cc1[nH]c2ccccc2c1CCNCc1ccc(/C=C/C(=O)NO)cc1 [LBH589, panobinostat, reference compound] |  | > 10000 |  | > 10000 | 0.1 to 10 | 1 to 10 |  |  |  | > 10000 |  | 
